From ChEMBL document CHEMBL1150831, “Immunosuppressive sesquiterpene alkaloids from Tripterygium wilfordii” (2001)
Calls of active or inactive are those of the source. No cut-off for these calls is given here.

Columns and labels:
Type in all cases: functional
PBMC [1] = test: Immunosuppressive activity in human PBMC assessed as inhibition of LPS-stimulated IFN-gamma production at 0.3 ug/mL after 18 to 24 hrs by ELISA
PBMC [2] = test: Immunosuppressive activity in human PBMC assessed as inhibition of LPS-stimulated IL4 production at 0.3 ug/mL after 18 to 24 hrs by ELISA
PBMC [3] = test: Immunosuppressive activity in human PBMC assessed as inhibition of LPS-stimulated IL2 production at 0.3 ug/mL after 18 to 24 hrs by ELISA
PBMC [4] = test: Immunosuppressive activity in human PBMC assessed as inhibition of LPS-stimulated TNFalpha production at 0.3 ug/mL after 18 to 24 hrs by ELISA
PBMC [5] = test: Immunosuppressive activity in human PBMC assessed as inhibition of LPS-stimulated IL8 production at 0.3 ug/mL after 18 to 24 hrs by ELISA
PBMC [6] = test: Immunosuppressive activity in human PBMC assessed as inhibition of LPS-stimulated IL1-beta production at 0.3 ug/mL after 18 to 24 hrs by ELISA
PBMC [7] = test: Immunosuppressive activity in human PBMC assessed as inhibition of LPS-stimulated IFN-gamma production at 10 ug/mL after 18 to 24 hrs by ELISA
PBMC [8] = test: Immunosuppressive activity in human PBMC assessed as inhibition of LPS-stimulated IL4 production at 10 ug/mL after 18 to 24 hrs by ELISA
PBMC [9] = test: Immunosuppressive activity in human PBMC assessed as inhibition of LPS-stimulated TNFalpha production at 10 ug/mL after 18 to 24 hrs by ELISA
PBMC [10] = test: Immunosuppressive activity in human PBMC assessed as inhibition of LPS-stimulated IL8 production at 10 ug/mL after 18 to 24 hrs by ELISA
PBMC [11] = test: Immunosuppressive activity in human PBMC assessed as inhibition of LPS-stimulated IL1-beta production at 10 ug/mL after 18 to 24 hrs by ELISA
PBMC [12] = test: Immunosuppressive activity in human PBMC assessed as inhibition of LPS-stimulated IL2 production at 10 ug/mL after 18 to 24 hrs by ELISA

Structure (SMILES) | inhibition at 0.3 µg/mL (PBMC [1]) [%] | inhibition at 0.3 µg/mL (PBMC [2]) [%] | inhibition at 0.3 µg/mL (PBMC [3]) [%] | inhibition at 0.3 µg/mL (PBMC [4]) [%] | inhibition at 0.3 µg/mL (PBMC [5]) [%] | inhibition at 0.3 µg/mL (PBMC [6]) [%] | inhibition (PBMC [7]) | inhibition (PBMC [8]) | inhibition (PBMC [9]) | inhibition (PBMC [10]) | inhibition (PBMC [11]) | inhibition (PBMC [12])
C[C@]12C=CC(=O)C=C1CC[C@@H]1[C@@H]2[C@@H](O)C[C@@]2(C)[C@H]1CC[C@]2(O)C(=O)CO [PREDNISOLONE] | 75 | 76 | 65 | 52 | 15 | 68 | – | – | – | – | – | –
CC(=O)OC[C@]12[C@H](OC(C)=O)[C@H](OC(C)=O)[C@@H]3[C@@H](OC(C)=O)[C@@]14O[C@@]3(C)COC(=O)c1cccnc1CC[C@@](C)(O)C(=O)O[C@@H]([C@H](OC(C)=O)[C@@H]2OC(C)=O)[C@]4(C)O | – | – | – | – | – | – | inactive | inactive | inactive | inactive | inactive | inactive
